Common to all, as to assay type: functional, cell-based
One test deals with HL-60. Nature of the test: Cytotoxicity against human HL-60 cells assessed as reduction in cell viability measured after 48 hrs by MTT assay. The note with it: for IC50: HL-60, 48 h.
A further test concerns A549. Nature of the test: Cytotoxicity against human A549 cells assessed as reduction in cell viability measured after 48 hrs by MTT assay. The note with it: for IC50: A549, 48 h.
Another test has as its system MCF7. Nature of the test: Cytotoxicity against human MCF7 cells assessed as reduction in cell viability measured after 48 hrs by MTT assay. The note with it: for IC50: MCF7, 48 h. Background: Tetrazolium dyes change colour on reduction, which living cells bring about.
A further test relates to SW480. Nature of the test: Cytotoxicity against human SW480 cells assessed as reduction in cell viability measured after 48 hrs by MTT assay. The settings on record: for IC50: SW480, 48 h.

Active and inactive are the calls of the source. The rule behind the calls is not given here. Some results are limits rather than exact numbers.

Turning to `CC(=O)O[C@H]1C[C@H]2[C@@H](C(=O)[C@H](O)[C@@]3(O)C[C@@H]4O[C@@H]4[C@H](OC(C)=O)[C@]23C)[C@@H]2[C@H](O)[C@@H]3[C@H]([C@H](C)CC(=O)[C@H]3C)[C@]21C`, the result in the test with HL-60, in the test on A549, in the test with MCF7 and with SW480 was inactive.

With `CC(=O)O[C@H]1C[C@H]2[C@@H]([C@@H]3O[C@@H]3[C@@]3(O)C[C@@H]4O[C@@H]4[C@H](OC(C)=O)[C@]23C)[C@@H]2C[C@H]3[C@H](CO)CC(=O)[C@@H](C)[C@@H]3[C@@]12C`, the result with HL-60, in the test on A549, with MCF7 and in the test on SW480 was inactive.

Regarding `CC(=O)O[C@@H]1[C@H]2[C@@H]3[C@@H](OC(C)=O)C(=O)[C@@]4(O)C[C@@H]5O[C@H]5[C@H](OC(=O)CC(C)C)[C@]4(C)[C@H]3C[C@H](OC(C)=O)[C@]2(C)[C@@H]2[C@@H]1[C@]1(C)C(=C[C@H]2C)OC(=O)C1(C)O` (stereo partly specified), the IC50 in the test with HL-60 was > 10 µM; in the test with A549, 8.3 µM; in the test on MCF7, > 10 µM; in the test with SW480 it was > 10 µM.

As to `CC(=O)O[C@H]1C[C@H]2[C@@H](C(=O)[C@H](O)[C@@]3(O)C[C@@H]4O[C@@H]4[C@H](OC(C)=O)[C@]23C)[C@@H]2C(=O)[C@H]3[C@H](C)[C@@H](O)C[C@@H](C)[C@@H]3[C@@]12C`, the result in the test with HL-60, with A549, in the test with MCF7 and in the test with SW480 was inactive.

On to `CC(=O)O[C@H]1[C@H]2[C@H]([C@@H]3[C@H]4OC(C)(O)[C@]5(C)[C@H]4[C@H]([C@H](C)C(=O)[C@H]5O)[C@@]3(C)[C@H]1OC(C)=O)[C@@H](OC(C)=O)C(=O)[C@H]1C[C@@H]3O[C@H]3[C@H](OC(C)=O)[C@]21C` (stereo partly specified), for which the IC50 in the test with HL-60 was > 10 µM; with A549, 7.5 µM; in the test with MCF7, > 10 µM; in the test on SW480, > 10 µM.

With `CC(=O)O[C@H]1[C@H]2[C@H]([C@@H]3[C@@H](O)C4=C(C)C(=O)[C@@H](O)[C@@H](C)[C@@H]4[C@@]3(C)[C@H]1OC(C)=O)[C@@H](O)C(=O)[C@H]1C[C@@H]3O[C@@H]3[C@H](OC(C)=O)[C@]21C`, the outcome in the test on HL-60, in the test with A549, with MCF7 and in the test on SW480 was inactive.

On to `CC(=O)O[C@@H]1[C@H]2[C@H]3[C@H]([C@H](O)[C@H](OC(C)=O)[C@]2(C)[C@H]2[C@H](C)[C@H](OC(C)=O)[C@@H]4OC(=O)C(C)(O)[C@]4(C)[C@H]12)[C@]1(C)[C@H](C[C@@H]2O[C@H]2[C@@H]1OC(C)=O)C(=O)[C@@H]3O` (stereo partly specified), for which the half-inhibitory concentration (IC50) in the test with HL-60 was > 10 µM; in the test on A549 it was 7.3 µM; in the test on MCF7 it was > 10 µM; with SW480 it was > 10 µM.

For the compound `CC(=O)O[C@H]1C[C@H]2[C@H]([C@@H]3[C@@H](O)[C@@H]4[C@H]([C@H](C)C=C5OC(=O)C(C)(O)[C@@]54C)[C@]31C)[C@@H](O)C(=O)[C@H]1C[C@@H]3O[C@H]3[C@H](OC(=O)CC(C)C)[C@@]12C` (stereo partly specified), the concentration for half-maximal inhibition (IC50) was 1.6 µM with HL-60, 2.8 µM in the test on A549, 6.9 µM in the test on MCF7 and > 10 µM in the test on SW480.

Take `CC(=O)O[C@H]1C(=O)[C@@]2(C)[C@H]([C@H](OC(=O)c3ccccc3)[C@]3(O)C[C@H](OC(=O)[C@H](O)[C@@H](NC(=O)c4ccccc4)c4ccccc4)C(C)=C1C3(C)C)[C@]1(OC(C)=O)CO[C@@H]1C[C@@H]2O` [PACLITAXEL]: the IC50 in the test with HL-60, in the test with A549, with MCF7 and in the test with SW480 was < 0.008 µM in each case.

For orientation: IC50 means the concentration needed to halve the response being measured.

Source of the values: ChEMBL document CHEMBL4840320, “Taccachatrones A-G, Highly Oxidized Steroids from the Rhizomes of Tacca chantrierii and Their Cytotoxicity Assessment” (J Nat Prod, 2021).
